# Measured values: PMC9785606, “Design and Synthesis of Novel Phenylahistin Derivatives Based on Co-Crystal Structures as Potent Microtubule Inhibitors for Anti-Cancer Therapy” (Marine Drugs, 2022)
# Marks after values point to notes of the source that are not given here.
# How the values were obtained:
# [1] = tested on: human lung cancer NCI-H460 cell line; assay: MTT cytotoxicity assay, lung cancer NCI-H460 cell line; type: cell-based; conditions: Homo sapiens, NCI-H460, 72 h, mean ± SD
# Protocol: Human cancer cell lines (lung cancer NCI-H460 cell line, pancreatic cancer BxPC-3 cell line, colon cancer HT-29 cell line) were purchased from American Type Cell Culture Collection (ATCC, Manassas, VA, USA). Cells were maintained in RPMI-1640 medium supplemented with 10% (v/v) heat-inactivated fetal bovine serum, penicillin-streptomycin (100 U/mL-100 […]) at 37 °C in a humidified atmosphere (5% CO2–95% air). All tested derivatives were dissolved in 100% cell culture grade DMSO. Cells (3 × 10^3 per well) were seeded in 96-well plates for 24 h. Then, cells were treated with the tested compounds in six concentrations for 72 h. Cell viability was assessed by MTT assay. The absorbance at 490 nm was measured with a Microplate Reader (Molecular Devices, Silicon Valley, CA, USA). The data were analyzed by Origin 8.5 (OriginLab, Northampton, MA, USA).
# caspase-3 = assay: Western blotting of caspase-3 expression; type: cell-based
# Protocol: Western blot was performed as previously described with antibody caspase-3 (1:1000) (WB0177/WB0176) or GAPDH (1:3000) (WB0197/WB0196, Shanghai Wei-Ao Biotechnology Co., Shanghai, China). Densities of the Western blotting bands were quantified using ImageJ 19.0. (NIH, Bethesda, MD, USA).
# [2] = tested on: H22 hepatoma carcinoma cells transplanted tumor; assay: H22 subcutaneous transplanted tumor model, intravenous administration; conditions: for Tumor Volume (D15): 14 consecutive days; for Tumor Volume (D1): D1 (baseline), mean ± SD; for Tumor Weight: excised at end of administration; for IR (tumor weight inhibition rate): IR = (1 − TWt/TWc) × 100%
# Protocol: The anticancer effect of the compound 15p was further evaluated against H22 tumor-bearing mice models by intravenous injection at doses of 2 mg/kg, or 4 mg/kg, two or three times a week, and for 14 consecutive days. Docetaxel (10 mg/kg), plinabulin (4 mg/kg), and cyclophosphamide (20 mg/kg) were used as the positive controls.
# Balb/c mice (4–6 weeks old, 16–18 g) were purchased from Shanghai Sippr-BK laboratory animal Co. Ltd. The animal study protocol was approved by Institutional Review Board of Science and Technology Division of Linyi University (review opinion on behalf of the Ethics Committee) (The protocol code is LYU20220107, provided on 10 March 2022). H22 cells were grown in RPMI-1640 midium supplemented with 10% fetal bovine serum, and maintained at 37 °C in humidified 5% CO2. Cells were passaged when they reached 70–80% confluence. Viable H22 cells (1 × 10^7 cells/0.2 ml 0.9% sodium chloride) were injected into the peritoneal cavity of BALB/C mice to trigger ascitic cell growth. Later, cells were harvested and suspended. H22 cancer cells (2 × 10^7 cells/0.1 ml 0.9% sodium chloride cells) were subcutaneously injected into the right flank of each mouse. After implantation, the tumor size was measured with an electronic caliper twice a week, and the tumor volume was calculated according to the following formula: tumor volume (mm^3) = 0.5 × length × width^2. When the tumor volume reached about 130 mm^3, the xenograft tumor-bearing BALB/C mice were randomly placed into six groups at 10 mice per group: vehicle, plinabulin (4 mg/kg), 15p ([…]), 15p ([…]), cyclophosphamide (20 mg/kg) and docetaxel (10 mg/kg) groups. Docetaxel, plinabulin, and cyclophosphamide were chosen as positive control drug. The reference compound docetaxel and cyclophosphamide were completely dissolved in isotonic saline. […] The solution of compound 15p was diluted with the concentrated solution and in isotonic saline at a calculated ratio. The solutions of plinabulin were made up according to similar methods. The mice received intravenous administration (iv) every two or three days for consecutive 14 days. The tumor volumes and the body weights were recorded every two or three days after treatment. At the end of the administration period, the animals were euthanized by dislocation, and the tumor bulks were peeled off conforming to the Guide for the Animal use and Management of Shanghai Medicilon Biological Medicine Co. Ltd. The tumor volume was calculated according to the Principles of Non-clinical Research Techniques for Anti-tumor Drugs of Cytotoxic Drugs by China Food and Drug Administration.
# [3] = 2 mg/kg iv, listed as Compound 15p
# [4] = 4 mg/kg iv, listed as Compound 15p
structure (smiles),measurement,setting,value
C=CCn1cnc(/C=c2\[nH]c(=O)/c(=C/c3cccc(C(=O)c4ccc(F)cc4)c3)[nH]c2=O)c1C(C)C [15p],IC50,[1],1.03 ± 0.18 nM
same,Expression of caspase-3 vs control group and plinabulin group,caspase-3,significantly higher
same,Upregulation of caspase-3,caspase-3; 10 nM,strongest upregulation of caspase-3
same,Tumor Volume (D15),[2]; 2 mg/kg iv,1453.6 mm^3
same,Tumor Volume (D15),[2]; [3],1453.6 ± 909.5 mm^3
same,Tumor Volume (D1),[2]; 2 mg/kg iv,103.7 ± 29.99 mm^3
same,Tumor Weight,[2]; 2 mg/kg iv,0.82 g
same,Tumor Weight,[2]; [3],0.82 ± 0.47 g
same,IR (tumor weight inhibition rate),[2]; 2 mg/kg iv,27.6%
same,Tumor Volume (D15),[2]; 4 mg/kg iv,674.5 mm^3
same,Tumor Volume (D15),[2]; [4],674.5 ± 274.0* mm^3
same,Tumor Volume (D1),[2]; 4 mg/kg iv,102.2 ± 28.62 mm^3
same,Tumor Weight,[2]; 4 mg/kg iv,0.39 g
same,Tumor Weight,[2]; [4],0.39 ± 0.22 g
same,IR (tumor weight inhibition rate),[2]; 4 mg/kg iv,65%
same,IR (tumor weight inhibition rate),[2]; [4],65.2%
same,melting point,,200 to 202 °C
